Results published in patent publication US20070093969A1, “Molecular nephrotoxicology modeling” (priority 2002, published 2007).

What was measured:
kidney = conditions: rat; cited from earlier work
[1] = in vivo; cited from earlier work
rats [2] = conditions: rat, in vivo; cited from earlier work
renal cortex = conditions: cited from earlier work
[3] = system: mitochondrial respiration; conditions: cited from earlier work
rats [4] = conditions: rat, in vivo; cited from earlier work; remark: listed apart in the source
rats [5] = conditions: rat, in vivo; cited from earlier work; remark: listed apart in the source
proximal renal tubule = conditions: rat, in vivo; cited from earlier work
mouse [6] = conditions: in vivo; cited from earlier work
rats [7] = conditions: rat, in vivo; cited from earlier work; remark: listed apart in the source
[8] = system: glomerular epithelial cell; conditions: rat, in vivo; cited from earlier work
rats [9] = conditions: rat, in vivo; cited from earlier work; remark: listed apart in the source
rats [10] = conditions: rat, in vivo; cited from earlier work; remark: listed apart in the source
rats [11] = conditions: rat, in vivo; cited from earlier work; remark: listed apart in the source
rats [12] = conditions: rat, in vivo; cited from earlier work; remark: listed apart in the source
mouse [13] = conditions: in vivo; cited from earlier work; remark: listed apart in the source
patients [14] = conditions: human, in vivo; cited from earlier work
rats [15] = conditions: rat, in vivo; cited from earlier work; remark: listed apart in the source
rabbits [16] = conditions: rabbit, in vivo; cited from earlier work
rabbits [17] = conditions: rabbit, in vivo; cited from earlier work; remark: listed apart in the source
[18] = system: kidney tissue gene expression; conditions: rat, in vivo
kidney tissue = conditions: in vivo; cited from earlier work
patients [19] = conditions: human, in vivo; cited from earlier work; remark: listed apart in the source

## O=C(O)c1cc(/N=N/c2ccc(O)c(C(=O)O)c2)ccc1O [Olsalazine]
kidney
  kidney findings: interstitial nephritis and tubular necrosis

## gentamicin
[1]
  gamma-glutamyl transpeptidase activity in urine: increase

## CC(=N)S [thioacetamide, Thioacetamide]
Rats [2]
  serum total bilirubin, aspartate aminotransferase, alanine aminotransferase, BUN, creatinine and TNFα: elevated

## O=C(Cc1cccs1)N[C@@H]1C(=O)N2C(C(=O)[O-])=C(C[n+]3ccccc3)CS[C@H]12 [cephaloridine, Cephaloridine]
Renal cortex
  glutathione reductase: inhibited
  reduced glutathione (GSH) in the renal cortex: depleted
[3]
  mitochondrial respiration and uptake of anionic succinate: reduce

## N.N.[Cl][Pt][Cl] [cisplatin, Cisplatin (Pt (NH3)2(Cl)2)]
Rats [4]
  serum creatinine levels: elevations
Rats [5]
  food intake: decreased
  urine osmolality: decreased
  urine volume: increase
Proximal renal tubule
  renal injury: induced renal injury

## CN(C)c1ncnc2c1ncn2[C@@H]1O[C@H](CO)[C@@H](N)[C@H]1O [PAN, Puromycin aminonucleoside]
Rats [7]
  urine protein and renal damage: proteinuria
[8]
  glomerular epithelial cell apoptosis: induced
Rats [9]
  serum albumin concentration: negatively affected
  serum non-esterified fatty acids: increase

## Carboplatin
Proximal renal tubule
  renal damage compared with cisplatin: less damage than cisplatin
  renal injury: induced renal injury
Rats [10]
  CGT excretion: increased approximately two-fold

## N=C(N)c1ccc(OCCCCCOc2ccc(C(=N)N)cc2)cc1 [pentamidine, Pentamidine]
Rats [11]
  tubular toxicity: dose-related and reversible

## CC1CCC(NC(=O)N(CCCl)N=O)CC1 (stereo not drawn) [Semustine]
Rats [12]
  renal injury: proximal tubule injury and papillary necrosis

## O=P1(NCCCl)OCCCN1CCCl (stereo not drawn) [ifosfamide, Ifosfamide]
Mouse [13]
  clearance rate of creatinine: decreased
  serum creatinine and urea levels: elevated
Patients [14]
  patients who developed nephrotoxicity: seven
Rats [15]
  body weight and hematocrit versus control rats: significantly lower

## CC1=C2C(=CO[C@H](C)[C@H]2C)C(O)=C(C(=O)O)C1=O [citrinin, Citrinin]
Rabbits [16]
  blood urea nitrogen and serum-creatinine levels: increased
  clinical findings: azotaemia and metabolic acidosis
  creatinine clearance: decreased
Rabbits [17]
  renal ultrastructure: renal alterations

## O=C(O)Cc1ccccc1Nc1c(Cl)cccc1Cl [diclofenac, Diclofenac]
[18]
  Tox Group Mean, GLGC Identifier 67: 1551.30
  Tox Group Mean, GLGC Identifier 665: 849.30
  Tox Group Mean, GLGC Identifier 725: 33.60
  Tox Group Mean, GLGC Identifier 1422: 174.39
  Tox Group Mean, GLGC Identifier 1527: 51.23
  Tox Group Mean, GLGC Identifier 1529: 194.31
  Tox Group Mean, GLGC Identifier 1698: 190.91
  Tox Group Mean, GLGC Identifier 1729: 81.89
  Tox Group Mean, GLGC Identifier 1847: 22.26
  Tox Group Mean, GLGC Identifier 1858: 253.42
  Tox Group Mean, GLGC Identifier 1888: 101.45
  Tox Group Mean, GLGC Identifier 1894: 294.35
  Tox Group Mean, GLGC Identifier 2128: 97.35
  Tox Group Mean, GLGC Identifier 3172: 36.28
  Tox Group Mean, GLGC Identifier 3439: 135.79
  Tox Group Mean, GLGC Identifier 3465: 152.39
  Tox Group Mean, GLGC Identifier 4449: 156.15
  Tox Group Mean, GLGC Identifier 4661: 555.94
  Tox Group Mean, GLGC Identifier 5461: 694.84
  Tox Group Mean, GLGC Identifier 5920: 1412.80
  Tox Group Mean, GLGC Identifier 5930: 73.85
  Tox Group Mean, GLGC Identifier 6014: 183.73
  Tox Group Mean, GLGC Identifier 6046: 83.37
  Tox Group Mean, GLGC Identifier 6278: 58.48
  Tox Group Mean, GLGC Identifier 6758: 59.84
  Tox Group Mean, GLGC Identifier 6782: 310.65
  Tox Group Mean, GLGC Identifier 6796: 304.75
  Tox Group Mean, GLGC Identifier 6917: 111.53
  Tox Group Mean, GLGC Identifier 7299: 595.57
  Tox Group Mean, GLGC Identifier 7540: 504.78
  Tox Group Mean, GLGC Identifier 7872: 63.92
  Tox Group Mean, GLGC Identifier 7936: 82.66
  Tox Group Mean, GLGC Identifier 7937: 34.46
  Tox Group Mean, GLGC Identifier 8065: 236.57
  Tox Group Mean, GLGC Identifier 8099: 72.23
  Tox Group Mean, GLGC Identifier 8104: 85.37
  Tox Group Mean, GLGC Identifier 8234: 22.24
  Tox Group Mean, GLGC Identifier 8759: 237.31
  Tox Group Mean, GLGC Identifier 8820: 743.55
  Tox Group Mean, GLGC Identifier 8850: 175.34
  Tox Group Mean, GLGC Identifier 8888: 22.26
  Tox Group Mean, GLGC Identifier 9079: 1099.28
  Tox Group Mean, GLGC Identifier 9520: 69.60
  Tox Group Mean, GLGC Identifier 10434: 77.07
  Tox Group Mean, GLGC Identifier 11434: 181.39
  Tox Group Mean, GLGC Identifier 11755: 343.83
  Tox Group Mean, GLGC Identifier 12979: 742.50
  Tox Group Mean, GLGC Identifier 13013: 32.49
  Tox Group Mean, GLGC Identifier 13485: 38.32
  Tox Group Mean, GLGC Identifier 13542: 321.75
  Tox Group Mean, GLGC Identifier 13614: 497.29
  Tox Group Mean, GLGC Identifier 13966: 227.19
  Tox Group Mean, GLGC Identifier 14003: 1575.92
  Tox Group Mean, GLGC Identifier 14346: 174.62
  Tox Group Mean, GLGC Identifier 14450: 45.80
  Tox Group Mean, GLGC Identifier 15017: 2241.27
  Tox Group Mean, GLGC Identifier 15035: 23.84
  Tox Group Mean, GLGC Identifier 15124: 1897.22
  Tox Group Mean, GLGC Identifier 15125: 3102.06
  Tox Group Mean, GLGC Identifier 15379: 33.32
  Tox Group Mean, GLGC Identifier 15411: 552.53
  Tox Group Mean, GLGC Identifier 15679: 309.12
  Tox Group Mean, GLGC Identifier 15761: 22.22
  Tox Group Mean, GLGC Identifier 15964: 487.88
  Tox Group Mean, GLGC Identifier 16520: 174.46
  Tox Group Mean, GLGC Identifier 16521: 453.74
  Tox Group Mean, GLGC Identifier 16681: 134.46
  Tox Group Mean, GLGC Identifier 16982: 1036.49
  Tox Group Mean, GLGC Identifier 17541: 1839.84
  Tox Group Mean, GLGC Identifier 18246: 100.99
  Tox Group Mean, GLGC Identifier 19067: 76.83
  Tox Group Mean, GLGC Identifier 20000: 24.08
  Tox Group Mean, GLGC Identifier 20457: 235.87
  Tox Group Mean, GLGC Identifier 20523: 1004.68
  Tox Group Mean, GLGC Identifier 20864: 3112.64
  Tox Group Mean, GLGC Identifier 21012: 445.05
  Tox Group Mean, GLGC Identifier 21014: 352.43
  Tox Group Mean, GLGC Identifier 21145: 76.23
  Tox Group Mean, GLGC Identifier 21354: 640.85
  Tox Group Mean, GLGC Identifier 21491: 67.51
  Tox Group Mean, GLGC Identifier 22311: 1255.02
  Tox Group Mean, GLGC Identifier 22321: 138.89
  Tox Group Mean, GLGC Identifier 23987: 596.80
  Tox Group Mean, GLGC Identifier 24232: 48.69
  Tox Group Mean, GLGC Identifier 24566: 32.95
  Tox Group Mean, GLGC Identifier 24568: 78.30
  Tox Group Mean, GLGC Identifier 24893: 20.58
  Tox Group Mean, GLGC Identifier 25106: 28.05
  Tox Group Mean, GLGC Identifier 26083: 403.60
Kidney tissue
  levels of BUN, malondialdehyde (MDA), SOD, and activated Ca2+-Mg2+-endonuclease: elevated

## CC(C)(Oc1ccc(C2CC2(Cl)Cl)cc1)C(=O)O (stereo not drawn) [Ciprofibrate]
Patients [19]
  plasma creatinine and urea levels: elevated
